Data from ChEMBL document CHEMBL1145320, “3,4,5-Trisubstituted isoxazoles as novel PPARdelta agonists: Part 1” (Bioorg Med Chem Lett, 2006).

Tests used:
[1] = target: T1, Peroxisome proliferator-activated receptor gamma (Homo sapiens, UniProt P37231); assay: Agonist activity at PPARgamma by transactivation assay; format: functional
T1 sequence (P37231 whole entry): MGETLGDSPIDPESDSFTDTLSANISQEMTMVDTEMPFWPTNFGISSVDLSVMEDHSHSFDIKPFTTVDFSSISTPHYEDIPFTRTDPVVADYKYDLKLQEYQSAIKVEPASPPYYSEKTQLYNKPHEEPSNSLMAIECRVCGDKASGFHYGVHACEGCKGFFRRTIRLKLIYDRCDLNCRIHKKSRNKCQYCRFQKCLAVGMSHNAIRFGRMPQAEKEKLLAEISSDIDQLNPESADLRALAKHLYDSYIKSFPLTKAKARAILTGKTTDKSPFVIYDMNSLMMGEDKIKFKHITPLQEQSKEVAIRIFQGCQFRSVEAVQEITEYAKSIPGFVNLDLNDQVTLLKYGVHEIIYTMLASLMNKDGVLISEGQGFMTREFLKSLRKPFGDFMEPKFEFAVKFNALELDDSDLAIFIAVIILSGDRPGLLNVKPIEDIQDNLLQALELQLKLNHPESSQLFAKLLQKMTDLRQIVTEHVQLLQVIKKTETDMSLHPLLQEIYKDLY

[2] = target: T2, Peroxisome proliferator-activated receptor alpha (Homo sapiens, UniProt Q07869); assay: Agonist activity at PPARalpha by transactivation assay; format: functional
T2 sequence (Q07869 whole entry): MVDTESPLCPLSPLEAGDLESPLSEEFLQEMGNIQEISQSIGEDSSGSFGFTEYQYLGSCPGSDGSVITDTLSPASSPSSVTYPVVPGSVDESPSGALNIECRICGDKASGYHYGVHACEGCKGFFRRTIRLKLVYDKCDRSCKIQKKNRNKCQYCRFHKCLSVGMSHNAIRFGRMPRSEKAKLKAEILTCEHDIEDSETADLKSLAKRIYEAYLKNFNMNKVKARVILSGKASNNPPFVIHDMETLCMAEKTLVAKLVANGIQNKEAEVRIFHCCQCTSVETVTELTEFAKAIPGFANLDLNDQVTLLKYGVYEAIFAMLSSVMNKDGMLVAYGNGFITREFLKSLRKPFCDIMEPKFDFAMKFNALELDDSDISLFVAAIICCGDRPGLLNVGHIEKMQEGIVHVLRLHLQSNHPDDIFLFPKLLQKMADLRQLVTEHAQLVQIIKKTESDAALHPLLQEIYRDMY

[3] = target: T3, Peroxisome proliferator-activated receptor delta (Homo sapiens, UniProt Q03181)
T3 sequence (Q03181 whole entry): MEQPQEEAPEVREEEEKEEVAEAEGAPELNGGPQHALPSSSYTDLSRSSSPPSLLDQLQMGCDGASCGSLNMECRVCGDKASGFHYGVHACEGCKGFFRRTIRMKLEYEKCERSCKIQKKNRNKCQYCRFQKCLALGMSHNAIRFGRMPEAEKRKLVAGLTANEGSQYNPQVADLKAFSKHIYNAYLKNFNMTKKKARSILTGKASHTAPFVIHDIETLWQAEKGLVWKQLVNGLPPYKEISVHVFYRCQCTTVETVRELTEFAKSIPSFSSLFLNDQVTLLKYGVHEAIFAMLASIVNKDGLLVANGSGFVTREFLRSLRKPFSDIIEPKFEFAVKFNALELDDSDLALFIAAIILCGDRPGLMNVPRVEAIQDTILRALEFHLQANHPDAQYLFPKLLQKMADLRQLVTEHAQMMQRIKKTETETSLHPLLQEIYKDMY
Description: (§1) Agonist activity at PPARdelta by transactivation assay

[4] = target: T3, Peroxisome proliferator-activated receptor delta; remark: listed apart in the source
Description: as §1

Row | EC50 ([1]; read-out: EC50) [nM] | EC50 ([2]; read-out: EC50) [nM] | EC50 [3] [nM] | EC50 [1] | EC50 [4] | EC50 [2] | Structure (SMILES)
1 | > 10000 | > 10000 | 80 |  |  |  | O=C(O)Cc1ccc(-c2noc(-c3ccccc3)c2C(=O)NCCOc2ccc(Cl)cc2Cl)c(Cl)c1
2 | > 10000 | > 10000 | > 10000 |  |  |  | Cc1onc(-c2ccc(CC(=O)O)cc2Cl)c1C(=O)NCCOc1ccc(C(F)(F)F)cc1
3 | > 10000 | > 10000 | 310 |  |  |  | Cc1onc(-c2ccc(CC(=O)O)cc2Cl)c1C(=O)NCCOc1ccc(Cl)cc1Cl
4 |  |  |  | Not Active | Not Active | Not Active | O=C(O)Cc1ccc(-c2noc(C(=O)CCCOc3ccc(Cl)cc3Cl)c2-c2ccccc2)c(Cl)c1
5 | > 10000 | > 10000 | 260 |  |  |  | Cc1onc(-c2ccc(CC(=O)O)cc2Cl)c1C(=O)NCCOc1ccc(C(F)(F)F)cc1C(F)(F)F
6 |  |  |  | Not Active | Not Active | Not Active | Cc1cc(SCc2cc(-c3c(Cl)cccc3Cl)no2)ccc1OCC(=O)O
7 | > 10000 | > 10000 | > 10000 |  |  |  | Cc1onc(-c2ccc(CC(=O)O)cc2Cl)c1C(=O)NCCOc1ccccc1[N+](=O)[O-]
8 | > 10000 | > 10000 | 2590 |  |  |  | CC(C)(C)c1onc(-c2ccc(CC(=O)O)cc2Cl)c1C(=O)NCCOc1ccc(Cl)cc1Cl
9 | > 10000 | 7110 | 90 |  |  |  | CC(C)c1onc(-c2ccc(CC(=O)O)cc2Cl)c1C(=O)NCCOc1ccc(Cl)cc1Cl
10 | > 10000 | > 10000 | 110 |  |  |  | CCc1onc(-c2ccc(CC(=O)O)cc2Cl)c1C(=O)NCCOc1ccc(Cl)cc1Cl
11 | > 10000 | > 10000 | 3670 |  |  |  | CN(CCOc1ccc(Cl)cc1Cl)C(=O)c1c(-c2ccc(CC(=O)O)cc2Cl)noc1-c1ccccc1

Row | Structure (SMILES) | EC50 ([1]; read-out: EC50) [nM] | EC50 ([2]; read-out: EC50) [nM] | EC50 [3] [nM] | EC50 [1] | EC50 [4] | EC50 [2]
12 | O=C(O)Cc1ccc(-c2noc(C3CC3)c2C(=O)NCCOc2ccc(Cl)cc2Cl)c(Cl)c1 | 3230 | 1670 | 30 |  |  | 
13 | O=C(O)Cc1ccc(-c2noc(-c3ccccc3)c2COCCOc2ccc(Cl)cc2Cl)c(Cl)c1 | > 10000 | > 10000 | 190 |  |  | 
14 | Cc1onc(-c2ccc(CC(=O)O)cc2Cl)c1C(=O)NCCOc1ccc(C(F)(F)F)cc1[N+](=O)[O-] | 1250 | 340 | 4 |  |  | 
15 | Cc1onc(-c2ccc(CC(=O)O)cc2Cl)c1COCCOc1ccc(C(F)(F)F)cc1[N+](=O)[O-] | > 10000 | 220 | 130 |  |  | 
16 | O=C(O)Cc1ccc(-c2noc(-c3ccco3)c2C(=O)NCCOc2ccc(Cl)cc2Cl)c(Cl)c1 | > 10000 | > 10000 | 10 |  |  | 
17 | O=C(O)Cc1ccc(-c2noc(-c3ccccc3)c2C(=O)CCCOc2ccc(Cl)cc2Cl)c(Cl)c1 | > 10000 | > 10000 | 30 |  |  | 
18 | Cc1onc(-c2c(Cl)cccc2Cl)c1C(=O)OCCOc1ccc(C(F)(F)F)cc1[N+](=O)[O-] | > 10000 | > 10000 | 230 |  |  | 
